Values quoted from earlier work, collected in patent US20250161386A1, “METHOD OF IMPROVING COGNITIVE FUNCTION IN ADULTS” (SEMPERA ORGANICS, INC., priority 2023, published 2025).

Columns and labels:
[1] = rat, oral administration of H. erinaceus mycelia extract
[2] = system: pro-brain-derived neurotrophic factor (BDNF); conditions: mice, after administration

Row | Compound | time of peak plasma concentration post dose [1] | circulating pro-BDNF [2]
1 | CC(C)C1=C2[C@H]3CCC4=C(O)C(=O)[C@@]5(O)CO[C@H]6O[C@@H]([C@@H]4[C@]65O)[C@]3(C)CC[C@@]2(C)CC1 [erinacine S] | 270 min | –
2 | CCCCCCCCCCCCCCCC(=O)OCc1cc(OC)c(C/C=C(\C)CCC=C(C)C)c(O)c1C=O [hericene A] | – | increase
